This is an account of results in patent publication US20080153921A1, “Lycopene Formulations For the Treatment of Atherosclerotic Conditions” (CAMBRIDGE, priority 2005, published 2008).

The test system of one assay is lipid oxidising abzymes. The assay is described as follows: ELISA based abzyme assay. To be noted: in vitro. The assay is classed as biochemical, human. The method, then:
ELISA assays were performed using Medac materials and reagents, which were used in accordance with the manufacturers instructions.
Briefly, serum samples from patients were treated as described above. 50 μl of sample diluent was pipetted into microtitre well A1 as blank, and 50 μl of the negative control, Positive Control and the diluted patients' samples were pipetted into other microtitre wells. The microplate wells were incubated for 60 min (±5 min) at 37 °C (±1° C.) in a humid chamber and then washed three times with 200 μl wash buffer per well. 50 μl of Conjugate was then added to each well and the microplate wells incubated again for 60 min (±5 min) at 37 °C (±1° C.) in a humid chamber and then washed. 50 μl of TMB-Substrate, was added to each well and the microplate wells incubated for 30 min (±2 min) at 37 °C (±1° C.) in a humid chamber. The reaction was stopped by adding 100 μl of Stop Solution, to each well.
Photometric reading was performed at 450 nm (ref. 620-650 nm) within 15 min after adding the Stop Solution.
To calculate the results, the OD value of the blank (well A1) was subtracted from all other OD values. Preferably, the OD value of the blank was <0.150, the mean OD value of the Negative Control was <0.100 and the OD value of the Positive Control was >0.800. Cut-off mean OD value of the Negative Control+0.380. Grey zone Cut-off±10%
(ELISA stands for enzyme-linked immunosorbent assay.)

The subject of assay [1] is lipid oxidising abzymes (atheroma extracted IgG). The assay is described as follows: Testing of anti-abzyme activity (lipid oxidation, MDA/thiobarbituric acid assay). In kind it is biochemical, human. The method, then:
Antibodies were extracted from advanced atherosclerotic lesions of human aorta retrieved from two male patients […], during bypass surgery of an abdominal aortal stenosis at the Centre of Cardio-Vascular Surgery of the Medical University of Rostov-na-Donu, Russian Federation. After recovery these samples were immediately put in 30% w/v solution of NaCl and stored at 0-4° C. for 1 month prior to examination. […]
The antibodies were extracted and analysed separately from the lesions of the two pieces of the abdominal aorta obtained from the […] different patients. […]
Samples of the human serum were incubated with different concentrations of lycopene, lycopene/lactoprotein conjugate or alone (control samples) with the presence of atheroma extracted IgG for 16 hours at 37° C. at pH 5.6. The level of lipid peroxidation was assessed as a level of MDA concentration which was measured by spectrophotometric method [Draper, H. H. et al Free Radic. […] Briefly, the level of abzymes in a sample was determined as follows: Samples of sera were diluted 1:1 by 0.05M acetate buffer pH 4.0 to make the final pH of these samples between 5.6-5.8. […] The supernatants were collected and their absorption measured at λ 525 nm to determine the concentration of malondialdehydes (MDA), which are products of lipid peroxidation.

As for `CC(C)=CCC/C(C)=C/C=C/C(C)=C/C=C/C(C)=C/C=C/C=C(C)/C=C/C=C(C)/C=C/C=C(\C)CCC=C(C)C` [Lycopene], the abzyme inhibition activity entry in the assay with lipid oxidising abzymes was “ineffective”; in assay [1] (lipid oxidation assay, in vitro) it was “ineffective”. In addition, the “Maximum inhibition in vitro” value in assay [1] (abzyme inhibition) is on record as 0%.
